From PMC5574184 (Journal of medicinal chemistry, 2016)
“Also recorded” adds a separate entry of the source.

What was measured:
HDAC1 = HDAC1 (Homo sapiens, UniProt Q13547); assay: ELISA-based HDAC activity assay; assay type: biochemical
HDAC2 = HDAC2 (Homo sapiens, UniProt Q92769); assay: ELISA-based HDAC activity assay; assay type: biochemical
HDAC3 = HDAC3 (Homo sapiens, UniProt O15379); assay: ELISA-based HDAC activity assay; assay type: biochemical
60 NCI cell lines = assay: NCI-60 dose response assay; assay type: cell-based, human; details: for GI50 in the dose response assay (in words): most of the NCI-60 cell lines
[1] = test system: global histone H3 lysine 9 (H3K9) acetylation in HCT116; assay: Western blot analysis of global histone H3 lysine 9 acetylation; assay type: cell-based, human; details: for concentration at which significant induction of global acetylation was observed: HCT116, 24 h exposure, tested at 10 nM, 100 nM, 1 μM
HDAC6 = target: T1, HDAC6 (Homo sapiens, UniProt Q9UBN7); assay: ELISA-based HDAC activity assay; assay type: biochemical
T1 sequence (Q9UBN7 1-1215): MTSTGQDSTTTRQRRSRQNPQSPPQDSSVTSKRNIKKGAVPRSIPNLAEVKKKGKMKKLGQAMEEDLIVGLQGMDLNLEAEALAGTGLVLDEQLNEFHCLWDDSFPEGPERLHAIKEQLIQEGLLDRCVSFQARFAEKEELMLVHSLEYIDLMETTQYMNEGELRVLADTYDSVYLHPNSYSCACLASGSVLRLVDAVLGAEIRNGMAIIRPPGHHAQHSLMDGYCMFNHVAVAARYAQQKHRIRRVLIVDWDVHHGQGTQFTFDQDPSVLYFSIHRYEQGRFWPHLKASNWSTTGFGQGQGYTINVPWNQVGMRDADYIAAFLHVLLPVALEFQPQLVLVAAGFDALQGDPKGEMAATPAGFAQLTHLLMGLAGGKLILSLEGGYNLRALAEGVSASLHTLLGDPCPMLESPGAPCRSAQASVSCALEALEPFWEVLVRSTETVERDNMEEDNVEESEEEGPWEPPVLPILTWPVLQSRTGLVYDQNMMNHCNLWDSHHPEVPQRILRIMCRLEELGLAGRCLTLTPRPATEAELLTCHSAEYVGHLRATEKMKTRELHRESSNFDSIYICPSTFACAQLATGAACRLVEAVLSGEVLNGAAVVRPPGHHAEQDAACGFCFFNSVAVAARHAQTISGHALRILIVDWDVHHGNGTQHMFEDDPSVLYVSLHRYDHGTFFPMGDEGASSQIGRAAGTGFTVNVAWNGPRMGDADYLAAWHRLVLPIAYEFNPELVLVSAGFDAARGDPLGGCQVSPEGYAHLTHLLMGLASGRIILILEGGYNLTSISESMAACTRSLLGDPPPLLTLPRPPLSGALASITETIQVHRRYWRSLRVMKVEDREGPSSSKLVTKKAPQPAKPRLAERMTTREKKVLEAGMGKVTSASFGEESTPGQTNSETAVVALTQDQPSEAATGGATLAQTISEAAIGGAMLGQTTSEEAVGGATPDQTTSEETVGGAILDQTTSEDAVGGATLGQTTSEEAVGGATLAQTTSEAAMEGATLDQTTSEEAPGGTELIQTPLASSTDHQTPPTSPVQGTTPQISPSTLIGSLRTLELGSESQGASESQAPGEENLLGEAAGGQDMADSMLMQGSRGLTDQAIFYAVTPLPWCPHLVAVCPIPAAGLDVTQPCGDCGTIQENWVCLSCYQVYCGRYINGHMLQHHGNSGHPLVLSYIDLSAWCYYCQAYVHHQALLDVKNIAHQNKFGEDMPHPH

[2] = NCI nontumored animal toxicity assay for acute toxicity; assay type: in vivo; details: highest dose of 50 mg/kg tested
[3] = test system: HCT116 colorectal cancer cell line; details: read-out: GI50 previously reported; HCT 116 cell growth inhibition; cited from earlier work
[4] = mouse serum, mouse microsomal proteins, cellular proteins; cited from earlier work

Sequence of HDAC2 (Q92769 whole entry): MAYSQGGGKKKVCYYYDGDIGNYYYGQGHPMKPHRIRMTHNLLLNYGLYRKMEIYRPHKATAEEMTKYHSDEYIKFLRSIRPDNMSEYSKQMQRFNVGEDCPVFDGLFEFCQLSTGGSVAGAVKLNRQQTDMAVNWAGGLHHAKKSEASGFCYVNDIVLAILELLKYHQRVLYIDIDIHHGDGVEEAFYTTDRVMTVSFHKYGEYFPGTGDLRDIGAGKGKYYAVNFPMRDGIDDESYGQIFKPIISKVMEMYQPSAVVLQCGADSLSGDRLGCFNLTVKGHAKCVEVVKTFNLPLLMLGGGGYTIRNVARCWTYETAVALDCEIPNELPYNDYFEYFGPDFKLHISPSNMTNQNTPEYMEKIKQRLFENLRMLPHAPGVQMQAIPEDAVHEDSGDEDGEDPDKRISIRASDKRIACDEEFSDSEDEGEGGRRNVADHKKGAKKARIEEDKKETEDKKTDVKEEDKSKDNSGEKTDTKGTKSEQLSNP
Sequence of HDAC1 (Q13547 whole entry): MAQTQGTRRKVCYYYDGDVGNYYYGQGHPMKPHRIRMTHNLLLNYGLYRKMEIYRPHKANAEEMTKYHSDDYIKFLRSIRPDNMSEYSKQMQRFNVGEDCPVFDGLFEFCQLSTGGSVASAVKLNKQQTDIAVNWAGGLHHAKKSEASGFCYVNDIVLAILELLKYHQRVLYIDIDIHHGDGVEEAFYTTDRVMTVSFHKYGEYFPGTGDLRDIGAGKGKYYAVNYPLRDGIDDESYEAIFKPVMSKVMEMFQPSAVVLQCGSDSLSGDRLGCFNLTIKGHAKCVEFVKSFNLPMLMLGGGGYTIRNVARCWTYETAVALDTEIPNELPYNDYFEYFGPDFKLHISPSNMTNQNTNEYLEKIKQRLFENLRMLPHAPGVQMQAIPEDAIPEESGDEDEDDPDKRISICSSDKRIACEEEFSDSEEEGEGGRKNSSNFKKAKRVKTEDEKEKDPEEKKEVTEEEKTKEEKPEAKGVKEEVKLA
Sequence of HDAC3 (O15379 whole entry): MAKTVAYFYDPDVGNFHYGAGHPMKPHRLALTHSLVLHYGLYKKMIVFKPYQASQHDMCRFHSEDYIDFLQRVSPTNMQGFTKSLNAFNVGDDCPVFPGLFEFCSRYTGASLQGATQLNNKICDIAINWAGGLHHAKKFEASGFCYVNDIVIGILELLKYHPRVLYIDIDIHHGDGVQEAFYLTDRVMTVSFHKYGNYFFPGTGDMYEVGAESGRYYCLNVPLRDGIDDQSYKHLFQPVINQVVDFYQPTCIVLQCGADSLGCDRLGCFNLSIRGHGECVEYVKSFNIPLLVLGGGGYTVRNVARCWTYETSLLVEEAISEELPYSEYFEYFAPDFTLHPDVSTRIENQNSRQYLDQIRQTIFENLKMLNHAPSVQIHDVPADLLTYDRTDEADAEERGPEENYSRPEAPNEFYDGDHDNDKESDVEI
Sequence of HDAC3 (Q9Y618 whole entry partner): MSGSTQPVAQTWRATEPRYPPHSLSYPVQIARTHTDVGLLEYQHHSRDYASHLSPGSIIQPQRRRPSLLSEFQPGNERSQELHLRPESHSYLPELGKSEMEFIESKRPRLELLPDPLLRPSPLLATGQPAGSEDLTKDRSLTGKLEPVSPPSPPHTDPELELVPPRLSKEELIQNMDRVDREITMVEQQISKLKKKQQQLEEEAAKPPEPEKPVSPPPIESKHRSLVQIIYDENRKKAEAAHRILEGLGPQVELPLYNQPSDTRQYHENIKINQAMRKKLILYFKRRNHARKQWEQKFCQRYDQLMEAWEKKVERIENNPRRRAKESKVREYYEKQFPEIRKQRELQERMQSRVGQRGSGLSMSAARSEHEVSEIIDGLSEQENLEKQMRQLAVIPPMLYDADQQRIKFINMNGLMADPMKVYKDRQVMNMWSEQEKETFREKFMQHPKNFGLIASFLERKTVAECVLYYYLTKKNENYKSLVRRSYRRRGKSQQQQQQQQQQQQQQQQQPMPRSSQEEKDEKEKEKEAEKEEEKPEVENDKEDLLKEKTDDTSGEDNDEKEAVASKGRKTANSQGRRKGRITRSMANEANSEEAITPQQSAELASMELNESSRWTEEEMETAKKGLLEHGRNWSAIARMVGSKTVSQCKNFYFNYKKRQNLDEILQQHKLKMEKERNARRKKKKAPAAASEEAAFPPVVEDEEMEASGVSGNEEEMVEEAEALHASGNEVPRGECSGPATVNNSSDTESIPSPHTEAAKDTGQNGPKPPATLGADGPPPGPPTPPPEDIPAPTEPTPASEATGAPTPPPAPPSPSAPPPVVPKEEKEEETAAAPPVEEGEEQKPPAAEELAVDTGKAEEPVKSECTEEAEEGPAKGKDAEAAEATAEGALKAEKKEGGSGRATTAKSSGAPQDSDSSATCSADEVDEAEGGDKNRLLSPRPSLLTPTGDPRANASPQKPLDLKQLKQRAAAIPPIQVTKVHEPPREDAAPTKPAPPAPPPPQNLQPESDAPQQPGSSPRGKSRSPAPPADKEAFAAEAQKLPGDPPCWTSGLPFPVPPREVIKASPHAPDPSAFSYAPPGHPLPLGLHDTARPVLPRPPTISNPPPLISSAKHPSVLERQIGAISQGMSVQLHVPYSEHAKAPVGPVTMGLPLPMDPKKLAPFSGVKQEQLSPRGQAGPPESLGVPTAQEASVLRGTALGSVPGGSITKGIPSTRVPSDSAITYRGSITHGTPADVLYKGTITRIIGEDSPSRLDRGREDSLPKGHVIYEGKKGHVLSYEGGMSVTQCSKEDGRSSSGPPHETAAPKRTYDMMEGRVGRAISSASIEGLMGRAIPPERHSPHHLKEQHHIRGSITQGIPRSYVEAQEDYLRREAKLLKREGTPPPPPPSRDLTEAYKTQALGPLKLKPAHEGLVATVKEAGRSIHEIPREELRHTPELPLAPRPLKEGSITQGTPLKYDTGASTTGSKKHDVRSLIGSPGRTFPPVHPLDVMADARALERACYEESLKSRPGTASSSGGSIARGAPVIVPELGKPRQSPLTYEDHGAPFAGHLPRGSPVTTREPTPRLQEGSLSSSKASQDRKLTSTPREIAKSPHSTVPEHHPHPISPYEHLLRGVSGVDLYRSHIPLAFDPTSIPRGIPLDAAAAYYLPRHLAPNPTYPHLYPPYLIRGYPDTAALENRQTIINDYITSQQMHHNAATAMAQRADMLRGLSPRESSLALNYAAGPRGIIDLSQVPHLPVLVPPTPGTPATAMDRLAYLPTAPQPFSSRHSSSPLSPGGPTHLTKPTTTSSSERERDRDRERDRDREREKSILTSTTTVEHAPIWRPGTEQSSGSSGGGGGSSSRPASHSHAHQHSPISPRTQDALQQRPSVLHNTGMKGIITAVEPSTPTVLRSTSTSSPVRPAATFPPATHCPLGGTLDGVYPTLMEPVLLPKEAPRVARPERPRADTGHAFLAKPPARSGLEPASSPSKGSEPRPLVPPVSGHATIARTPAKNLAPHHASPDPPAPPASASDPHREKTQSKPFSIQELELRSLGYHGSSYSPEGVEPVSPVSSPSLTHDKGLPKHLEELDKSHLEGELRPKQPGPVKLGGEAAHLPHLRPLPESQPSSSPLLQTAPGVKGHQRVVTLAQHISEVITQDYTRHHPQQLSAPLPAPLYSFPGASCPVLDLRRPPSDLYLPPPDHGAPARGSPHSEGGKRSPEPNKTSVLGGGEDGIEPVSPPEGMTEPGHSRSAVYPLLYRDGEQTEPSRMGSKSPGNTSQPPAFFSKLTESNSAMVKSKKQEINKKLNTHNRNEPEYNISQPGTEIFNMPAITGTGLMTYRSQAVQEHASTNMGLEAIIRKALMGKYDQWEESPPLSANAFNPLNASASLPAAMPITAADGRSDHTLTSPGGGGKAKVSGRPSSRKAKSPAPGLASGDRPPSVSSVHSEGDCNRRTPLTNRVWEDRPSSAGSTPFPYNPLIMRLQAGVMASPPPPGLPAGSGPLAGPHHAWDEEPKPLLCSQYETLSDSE

CCCCCCCC(=O)SCC/C=C/[C@@H]1CC(=O)NCCOCCOCC(=O)N[C@@H](C(C)C)C(=O)O1 [Analogue 6]
inhibition of HDAC1, single concentration screen (HDAC1; 2 μM): significantly | inhibition of HDAC2, single concentration screen (HDAC2; 2 μM): significantly | inhibition of HDAC3, single concentration screen (HDAC3; 2 μM): significantly

CCCCCCCC(=O)SCC/C=C/[C@@H]1CC(=O)NCc2cccc(n2)-c2cccc(n2)C(=O)N[C@@H](C(C)C)C(=O)O1 [Analogue 7]
concentration inhibiting the growth of most of the cancer cell lines (60 NCI cell lines; NCI-60 dose response): < 10 nM | GI50 in the dose response assay (in words) (60 NCI cell lines): low nanomolar | concentration at which significant induction of global acetylation was observed [1]: 10 nM | inhibition of HDAC1, single concentration screen (HDAC1; 250 nM): significantly | inhibition of HDAC2, single concentration screen (HDAC2; 250 nM): significantly | inhibition of HDAC3, single concentration screen (HDAC3; 250 nM): significantly | selectivity for class I HDAC proteins (HDAC1, HDAC2, HDAC3) over class II HDAC6 (HDAC6; from IC50 values): at least 464 fold | acute toxicity [2]: no signs of toxicity; also recorded: well tolerated

CCCCCCCC(=O)SCC/C=C/[C@@H]1CC(=O)NCc2cccc(n2)CN(C)CC(=O)N[C@@H](C(C)C)C(=O)O1 [Analogue 8]
GI50 in the dose response assay (in words) (60 NCI cell lines): micromolar GI50s | inhibition of HDAC6, single concentration screen (HDAC6; 1 μM): slightly greater inhibition of HDAC6 compared to 6 and 7

CCCCCCCC(=O)SCC/C=C/[C@@H]1CC(=O)NCc2cccc(n2)CN(Cc2cccc3ccccc23)CC(=O)N[C@@H](C(C)C)C(=O)O1 [Analogue 13]
global acetylation observed ([1]; HCT116, even at 100 nM): hardly any global acetylation

CCCCCCCC(=O)SCC/C=C/[C@@H]1CC(=O)NCc2nc(cs2)C2=N[C@@](C)(CS2)C(=O)N[C@@H](C(C)C)C(=O)O1 [Largazole]
concentration at which significant induction of global acetylation was observed [1]: 10 nM | GI50 [3]: 0.044 µM | metabolic conversion [4]: rapidly converted to the active metabolite largazole thiol
